ChEMBL document CHEMBL3507680, “University of Dundee, Gates Library screen for HepG2 cell viability”

Test: Human HepG2 cell viability assay in 384 well format
Format: toxicity, cell-based
Parameters: dose 125 nL, time 70.5 hour; concentration not given beside the values
Conditions: HepG2 cells, read-out: Inhibition

| Structure (SMILES) | cytotoxicity at 70.5 h [%] |
| --- | --- |
| OCC1(Cc2ccc(Cl)cc2)CCN(Cc2ccccc2O)CC1 | -4.64 |
| Cc1cc(C(=O)N2C[C@H]3CCC[C@@]3(CO)C2)c2ccc(F)cc2n1 | -1.1 |
| Cc1cccc(C(C(=O)N2CCN(C(=O)c3ccc[nH]3)CC2)N(C)C)c1 (centres undefined) | -8.99 |
| COc1ccccc1OC1CN(C(=O)C(c2ccccc2F)N(C)C)C1 (centres undefined) | -0.928 |
| CC(=O)Nc1cccc(C(=O)N(C)C(C)Cc2cc(C)ccn2)c1 (centres undefined) | -2.97 |
| CCN(CC)C(=O)Cn1cc(-c2nc(C(C)C)no2)nn1 | -9.42 |
| COc1ccc(-c2ncc(-c3nccn3CCN(C)C)cn2)cc1 | -10.5 |
| COc1nccnc1-c1cc(NC2CCCC2)nc2[nH]ccc12 | -16.1 |
| CCc1nnc(N2CCN(CCc3ccccc3)C(=O)C2)o1 | -2.76 |
| COc1ncccc1-c1cc(C(=O)NC2CC2)ccn1 | -8.1 |
| CC(C)N1CCC(CC(=O)N(C)C(C)c2cncs2)CC1 (centres undefined) | -15.3 |
| CCc1cc(C(=O)NCC2CCN(Cc3cccc(C#N)c3)C2)on1 (centres undefined) | -1.72 |
| O=C(NCC1CCN(Cc2cc3ccccc3[nH]2)C1)c1ccsc1 (centres undefined) | -9.16 |
| COc1cccn(CC(=O)N(C)CCCOc2c(C)cccc2C)c1=O | 29.5 |
| C[C@@H]1CN(C(=O)CCCn2nnc(-c3ccc(F)cc3)n2)C[C@]1(C)O | 22.7 |
| CC(C)(C)c1cc(=O)[nH]c(-c2ccccc2CN2CCCCCC2)n1 | -3.97 |
| Nc1ccnc(N2C[C@@H]3CC[C@H](C2)N(CC2CCC2)C3=O)n1 | -3.52 |
| Cc1[nH]c(=O)[nH]c(=O)c1CC(=O)N1CCC(Oc2ccc(F)cc2)CC1 | -12.2 |
| COc1ccc([C@@H]2C[C@H](NC(C)=O)C[C@H](CCc3ccccc3)O2)cn1 | -4.78 |
| O=c1cc(N2CCCCC2)cnn1CCCn1cccn1 | 4.12 |
| Cc1ccc(CN(C)c2nccc(-c3cn(C)nc3C)n2)o1 | -9.08 |
| O=C(NCc1cc2n(n1)CCCNC2)C1(c2ccccc2)CCCCC1 | 0.103 |
| Cc1cc(C(F)(F)F)nc(CCNC(C)Cn2ccnc2)n1 (centres undefined) | -23.4 |
| Cc1nc(-c2cn(CCN)nn2)n(-c2ccc3c(c2)CCC3)n1 | -4.36 |
| CN(Cc1n[nH]c(=O)n1CCc1ccccc1F)S(C)(=O)=O | -1.83 |
| Nc1cc(C(=O)NCC2CCN(Cc3cccc(O)c3)C2)ccn1 (centres undefined) | 18.3 |
| COCC1CCN(c2nc(C(C)(C)C)nc3c2cnn3C)C1 (centres undefined) | 15.8 |

| Structure (SMILES) | cytotoxicity at 70.5 h [%] |
| --- | --- |
| NC(=O)CN1CC2(CCC1=O)CCN(Cc1ccc(Cl)c(F)c1)CC2 | 2.58 |
| CN1CCC(C)(CN(C)C(=O)c2ccc(CCC(C)(C)O)cc2)C1 (centres undefined) | -1.78 |
| O=C1CCC2(CCOC2)CN1Cc1ccc2nsnc2c1 (centres undefined) | -3.21 |
| O=C(NCCc1ccncc1)c1cccc(S(=O)(=O)NC2CCOC2)c1 (centres undefined) | 5.63 |
| Cc1[nH]nc(CCC(=O)NCC2CCCN(C3CCCC3)C2)c1C (centres undefined) | -5.73 |
| COc1ccc2c(=O)n(CC3CCNC3)ccc2c1OC (centres undefined) | 1.63 |
| O=C(c1cnc(O)cn1)N1CCC(CN2CCOCC2)CC1 | -13.8 |
| CCn1c(CN(C)C)nnc1C1CCN(Cc2cccc(F)c2F)CC1 | -1.68 |
| COCC(=O)N1CCCC(COc2ccccc2C)C1 (centres undefined) | 12.8 |
| O=C(NCCc1cccs1)N1CCCC2(CCC(=O)N(C3CC3)C2)C1 (centres undefined) | -0.67 |
| CCc1cc(N(C)Cc2nonc2C)nc(N2CCOCC2)n1 | 1.99 |
| COc1ncc(CN(C)C(C)c2cccnc2)cn1 (centres undefined) | 9.74 |
| Cc1ccccc1-c1noc(-c2ccc(NCC3COCCO3)nc2)n1 (centres undefined) | -3.64 |
| CCOCCn1nc(C)cc1C(=O)N1CC[C@@](O)(COC)C(C)(C)C1 | 25.9 |
| COc1cccc2ncn(C(C)Cn3cccn3)c(=O)c12 (centres undefined) | -3.99 |
| Cc1cncc(C(=O)N2CCNCC2C(=O)Nc2ccc(C)nc2)c1 (centres undefined) | -3.64 |
| CS(=O)(=O)c1ccc(CN2CCCCC2c2cccc(F)c2)cc1 (centres undefined) | -9.66 |
| O=C1CC2(CCN(Cc3ccc(-c4ccn[nH]4)s3)CC2)CN1 | -13.8 |
| O=C(c1cccc(Cl)c1)N1CCCC(Nc2ccc(F)cc2)C1 (centres undefined) | 2.07 |
| Cc1ccsc1CN1CCC(c2cc(C(C)C)n[nH]2)CC1 | -3.28 |
| CCc1ccc(-c2cn3c(C(=O)N[C@H](C(N)=O)[C@@H](C)O)csc3n2)cc1 | 15.1 |
| CC(=O)C1(c2ccccc2)CCN(C(=O)C2CNCCO2)CC1 (centres undefined) | -7.25 |
| CC(C)CN1CCCC1c1ccc(C(=O)Nc2ccc3[nH]nnc3c2)s1 (centres undefined) | -0.75 |
| CN1[C@H]2CC[C@@H]1CN(C(=O)c1sccc1S(N)(=O)=O)CC2 | -4.92 |
| COc1cccc(O)c1CN1CCCC(Nc2cccc(F)c2)C1 (centres undefined) | 0.789 |
| CCSc1ncc(CN2CC[C@@](O)(COC)C(C)(C)C2)cn1 | -18.2 |
| COCCn1ccnc1C1CCCN(C(=O)c2ccccc2C#N)C1 (centres undefined) | 0.955 |

| Structure (SMILES) | cytotoxicity at 70.5 h [%] |
| --- | --- |
| Cc1noc(C)c1CCCNC(=O)Nc1ccc2c(c1)CC(=O)N2 | -8.94 |
| CCCc1cncnc1N1CCCC2(CCC(=O)N(C3CCCC3)C2)C1 (centres undefined) | -9.78 |
| CSCC(=O)N1CCCN(c2ccncc2C)CC1 | -8.19 |
| Cc1ccc(C(=O)N2CCC3(CC2)c2ccccc2[C@@H](N)[C@@H]3O)cc1F | -10.1 |
| O=C1N(C2CCOCC2)CCCC12CCN(c1ncccc1Cl)C2 (centres undefined) | -14.5 |
| Cc1ccn(CC(=O)N2CC[C@@H](c3ccc4ccccc4c3)[C@H](O)C2)n1 | -10.1 |
| Cc1nc[nH]c1C(=O)N1CC[C@@H](NC(=O)c2ccccn2)[C@H](O)C1 | -1.79 |
| CNc1cc(C(=O)N(C)Cc2cc(-c3cccs3)n[nH]2)ccn1 | 0.513 |
| CCc1cc(C(=O)NCC2CCN(Cc3cccc(C)n3)C2)on1 (centres undefined) | -1.06 |
| FC(F)(F)c1ccnc(N2CCCN(Cc3ccccn3)CC2)n1 | 11.3 |
| Cc1ccc(O)c(C(=O)N2C[C@@H](C(=O)O)[C@H](c3ccccc3)C2)c1 | 0.313 |
| CN(CCCC1CCCO1)S(=O)(=O)NCc1ccccc1 (centres undefined) | 10.8 |
| CCCc1cc(N2CCC(NCCc3ccc(O)cc3)CC2)nc(C)n1 | -4.92 |
| CCNC(=O)[C@@H]1C[C@H](N)CN1C(=O)c1cccc(CCC(C)(C)O)c1 | -5.42 |
| O=C(c1cncc(N2CCCC3(CCNCC3)CC2)n1)N1CCCCC1 | 8.06 |
| Cn1ncnc1-c1ccnc(N2CCC(C(O)c3cccs3)CC2)n1 (centres undefined) | -10.9 |
| N#CC1(c2ccccc2)CCN(C(=O)C2CCCN(CC(N)=O)C2)CC1 (centres undefined) | 1.9 |
| CCC1CN(C(=O)c2cncc(C)c2)CCC(=O)N1Cc1ccccc1 (centres undefined) | -3.22 |
| O=C(NCCC1CN(C2CCCC2)CCO1)c1c[nH]c(=O)[nH]c1=O (centres undefined) | -12.3 |
| c1cc(-c2cn[nH]c2)ccc1CN1CCCCC1 | 13.1 |
| CC(C)=CCC1(CO)CCCN(Cc2nccs2)C1 (centres undefined) | -9.67 |
| CCCSCC(=O)N1CCCC(c2nccn2Cc2ccncc2)C1 (centres undefined) | 25.6 |
| COC(=O)c1cc(OCC2CCC2)cc(C(=O)N[C@@H](C)CO)c1 | -22.2 |
| CCN(CC1CCCN(CCc2cccc(OC)c2)C1)C(=O)CN(C)C (centres undefined) | -0.489 |
| Clc1cccc(-c2cccc(N3CCC(NC4CCOCC4)CC3)c2)c1 | 5.92 |
